Experimental data reported in publication PMC8391236, “Effect of Pterostilbene, a Natural Derivative of Resveratrol, in the Treatment of Colorectal Cancer through Top1/Tdp1-Mediated DNA Repair Pathway” (Cancers, 2021).

What was measured:
[1] = tested on: P53; experiment: Western blot for P53; assay type: cell-based, Human; conditions: CL187 cells, 12 h
Protocol: CL187 cells were treated with RE or PTE for 6 or 12 h, collected, and placed into lysis buffer (KeyGEN BioTECH, Nanjing, China). The total protein content in the cell lysates was measured using a BCA kit. Equivalent amount of total protein (30 μg) was loaded onto 10% SDS-PAGE gel. Electrophoresis was performed at 80 V for 25 min. After the sample went through concentrated gel, the voltage was adjusted to 120 V. Electrophoresis was stopped when the bromophenol blue band approached the bottom of the gel. After being transferred to PVDF membranes, the samples were incubated separately with 3 types of primary antibodies Top1, Tdp1, and P53 rabbit mAb (CST, Boston, MA, USA), followed by the incubation with secondary antibody goat anti-rabbit IgG (HRP)-conjugated (1:3000). ECL kit (New Cell and Molecular Biotech, Suzhou, China) was used for color development, and the images were collected by the gel imaging system (Tanon-5200, Shanghai, China).

[2] = tested on: SW480; experiment: Cell viability assay (CCK-8); assay type: cell-based; conditions: Homo sapiens
Protocol: (§1) PTE or RE were dissolved in DMSO and diluted with culture medium to 1–100 μM. The final concentration of DMSO was less than 0.1%, and 0.1% DMSO as negative control. CPT, as Top1 inhibitor, was diluted to 0.5 μM [36, 37], and FM, as Tdp1 inhibitor was diluted to 25 μM [38]. Exponentially growing cells were seeded in 96-well plates (5 × 10^3 cells/well) for 12 h. Various drugs were added separately and incubated for 24, 48, and 72 h. Cell viability was determined by CCK-8 (Beyotime Biotechnology, Shanghai, China) assay. […]
(§2) The drug concentration required for inhibiting cell proliferation by 50% (IC50) was determined by interpolation from dose-response curves.

[3] = tested on: Top1 in CL187 cells; experiment: Intracellular Top1 enzyme activity assay; assay type: cell-based, Human; conditions: CL187 cells treated 6 h
Protocol: CL187 cells were treated with different concentrations of drugs for 6 h. The supernatant was discarded, and the cells were collected. The extracts of cytoplasm, mitochondria, and nucleus were obtained by the same method as described in Section 2.4.7. The protein concentration of each extract was detected by BCA kit. Enzyme activity reaction was carried out by using 125 ng super helical DNA (pHOT-1) and cell extract. The protein concentration of the extract was guaranteed to be the same in each group. The mixture solution of the pHOT-1 and the cell extract was added into the reaction buffer and incubated for 30 min at 37 °C. The reaction was terminated with loading buffer. The agarose gel electrophoresis was performed, and the images were collected.

[4] = tested on: HFL-1; experiment: Proliferation of non-tumor cells (CCK-8); assay type: cell-based; conditions: Homo sapiens, HFL1
Protocol: as §1, with “The” for “PTE or RE were dissolved in DMSO and diluted with culture medium to 1–100 μM. The”
as §2

[5] = tested on: L02; experiment: Proliferation of non-tumor cells (CCK-8); assay type: cell-based; conditions: Homo sapiens
Protocol: as §1, with “The” for “PTE or RE were dissolved in DMSO and diluted with culture medium to 1–100 μM. The”
as §2

[6] = tested on: HCoEpiC-; experiment: Proliferation of non-tumor cells (CCK-8); assay type: cell-based
Protocol: as §1, with “The” for “PTE or RE were dissolved in DMSO and diluted with culture medium to 1–100 μM. The”
as §2

COc1cc(/C=C/c2ccc(O)cc2)cc(OC)c1 [PTE, 3,5-dimethoxy-4′-hydroxy-trans-stilbene]
expression of P53 (WB) [1]: promoted the expression of P53 | IC50 ([2]; SW480, 24 h): 113 ± 24 µM | IC50 ([2]; SW480, 48 h): 35.7 ± 9.32 µM | IC50 ([2]; SW480, 72 h): 40.5 ± 10.8 µM | concentration with the same inhibitory effect on intracellular Top1 enzyme activity ([3]; cell extracts + SC DNA): 20 µM | Top1 enzyme activity in mitochondria ([3]; CPT at 50 μM): significantly inhibited | IC50 ([4]; HFL-1, 24 h): 339 µM | IC50 ([4]; HFL-1, 48 h): 315 µM | IC50 ([4]; HFL-1, 72 h): 130 µM | IC50 ([5]; L02, 24 h): 478 µM | IC50 ([5]; L02, 48 h): 248 µM | IC50 ([5]; L02, 72 h): 148 µM | IC50 ([6]; 24 h): 444 µM | IC50 ([6]; 48 h): 250 µM | IC50 ([6]; 72 h): 83.4 µM
